Experimental data published in PubChem BioAssay AID330 (DTP/NCI, 2004).
Several values for one entry are separate records, joined by “and”; a condition that tells them apart may be missing. Identical values can stand only once. Inconclusive results and toxic doses are left out.

System: P388 leukemia ip, CD2F1 mice, survival T/C
Test: NCI In Vivo Anticancer Drug Screen. Data for tumor model P388 Leukemia (intraperitoneal) in CD2F1 (CDF1) mice
Settings: endpoint: median survival time, higher = longer survival
Procedure, shortened: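 Mice carrying the transplanted tumor received test compound or vehicle. Survival was recorded in each group, and the value is the treated-group measurement divided by that of the vehicle-treated control group.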

[1] = dose: 12.5 mg/kg/injection, schedule: Q01DX005 (ip), vehicle: saline
[2] = dose: 25.0 mg/kg/injection, schedule: Q01DX005 (ip), vehicle: saline
[3] = dose: 50.0 mg/kg/injection, schedule: Q01DX005 (ip), vehicle: saline
[4] = dose: 50.0 mg/kg/injection, schedule: Q01DX009 (ip), vehicle: saline with Tween-80
[5] = dose: 100.0 mg/kg/injection, schedule: Q01DX009 (ip), vehicle: saline with Tween-80
[6] = dose: 200.0 mg/kg/injection, schedule: Q01DX009 (ip), vehicle: saline with Tween-80
[7] = dose: 400.0 mg/kg/injection, schedule: Q01DX009 (ip), vehicle: saline with Tween-80
[8] = dose: 100.0 mg/kg/injection, schedule: Q01DX001 (ip), vehicle: Klucel (hydroxypropylcellulose) (HPC)
[9] = dose: 200.0 mg/kg/injection, schedule: Q01DX001 (ip), vehicle: Klucel (hydroxypropylcellulose) (HPC)
[10] = dose: 400.0 mg/kg/injection, schedule: Q01DX001 (ip), vehicle: Klucel (hydroxypropylcellulose) (HPC)
[11] = dose: 50.0 mg/kg/injection, schedule: Q01DX009 (ip), vehicle: saline
[12] = dose: 50.0 mg/kg/injection, schedule: Q01DX005 (ip), vehicle: saline with Tween-80
[13] = dose: 100.0 mg/kg/injection, schedule: Q01DX005 (ip), vehicle: saline with Tween-80
[14] = dose: 200.0 mg/kg/injection, schedule: Q01DX005 (ip), vehicle: saline with Tween-80
[15] = dose: 50.0 mg/kg/injection, schedule: Q01DX005 (ip), vehicle: Klucel (hydroxypropylcellulose) (HPC)
[16] = dose: 100.0 mg/kg/injection, schedule: Q01DX005 (ip), vehicle: Klucel (hydroxypropylcellulose) (HPC)
[17] = dose: 200.0 mg/kg/injection, schedule: Q01DX005 (ip), vehicle: Klucel (hydroxypropylcellulose) (HPC)
[18] = dose: 25.0 mg/kg/injection, schedule: Q01DX009 (ip), vehicle: other
[19] = dose: 50.0 mg/kg/injection, schedule: Q01DX009 (ip), vehicle: other
[20] = dose: 60.0 mg/kg/injection, schedule: Q01DX005 (ip), vehicle: saline with Tween-80
[21] = dose: 120.0 mg/kg/injection, schedule: Q01DX005 (ip), vehicle: saline with Tween-80
[22] = dose: 240.0 mg/kg/injection, schedule: Q01DX005 (ip), vehicle: saline with Tween-80
[23] = dose: 12.5 mg/kg/injection, schedule: Q01DX009 (ip), vehicle: saline

For `CC1CCCC2COCN12` (stereo not drawn), the T/C [1] was 105 % of control and 98 % of control, the T/C [2] was 105 % of control and 106 % of control and the T/C [3] was 101 % of control and 116 % of control and 118 % of control. The T/C (dose: 100.0 mg/kg/injection, schedule: Q01DX005 (ip), vehicle: saline) was 123 % of control and 96 % of control and the T/C (dose: 200.0 mg/kg/injection, schedule: Q01DX005 (ip), vehicle: saline) was 115 % of control.
For `Nc1ccc(S(=O)(=O)Nc2ccccc2-c2nc(N)nc(N)n2)cc1`, the T/C [4] was 98 % of control, the T/C [5] was 97 % of control and the T/C [6] was 94 % of control. The T/C [7] was 101 % of control.
In the case of `CC(C)(C)C(=O)Oc1ccc(Br)cc1`, the T/C [8] is reported as 106 % of control, the T/C [9] is reported as 106 % of control and the T/C [10] is reported as 108 % of control.
For `CCN(CC)CCCCCCNc1cc(OC)c(Cl)c2cccnc12`, the T/C (dose: 6.25 mg/kg/injection, schedule: Q01DX005 (ip), vehicle: saline) was 102 % of control, the T/C [1] was 95 % of control and the T/C [2] was 98 % of control. The T/C [3] was 115 % of control.
`CC(=O)NC(Cc1cccs1)C(=O)O` (stereo not drawn) was tested, and the T/C [11] was 93 % of control, the T/C (dose: 100.0 mg/kg/injection, schedule: Q01DX009 (ip), vehicle: saline) was 101 % of control and the T/C (dose: 200.0 mg/kg/injection, schedule: Q01DX009 (ip), vehicle: saline) was 101 % of control.
`Cc1cn2ccccc2c1-c1ccccc1` was tested, and the T/C [12] was 111 % of control, the T/C [13] was 108 % of control and the T/C [14] was 106 % of control.
`Nc1nc2ccccc2c2c1C(=O)NC2=O` was tested, and the T/C [4] was 104 % of control, the T/C [5] was 86 % of control and the T/C [6] was 90 % of control.
For `OC(c1ccccc1)C(C(c1ccccc1)N1CCCc2ccccc21)N1CCOCC1` (stereo not drawn), the T/C [15] was 99 % of control, the T/C [16] was 93 % of control and the T/C [17] was 90 % of control.
With `CC(C)=CCC(O)/C(C)=C/CC/C(=C/CC/C(C)=C/CO)CO` (stereo not drawn) the T/C (dose: 3.88 mg/kg/injection, schedule: Q01DX005 (ip), vehicle: Klucel (hydroxypropylcellulose) (HPC)) was 93 % of control, the T/C (dose: 7.75 mg/kg/injection, schedule: Q01DX005 (ip), vehicle: Klucel (hydroxypropylcellulose) (HPC)) was 100 % of control and the T/C (dose: 15.5 mg/kg/injection, schedule: Q01DX005 (ip), vehicle: Klucel (hydroxypropylcellulose) (HPC)) was 102 % of control. For the same compound, the T/C (dose: 31.0 mg/kg/injection, schedule: Q01DX005 (ip), vehicle: Klucel (hydroxypropylcellulose) (HPC)) was 102 % of control.
`CCOC(=O)/C=C/C(=O)NNS(=O)(=O)CCC(NC(=O)OCc1ccccc1)C(=O)OCc1ccccc1` (stereo not drawn) was tested, and the T/C (dose: 12.5 mg/kg/injection, schedule: Q01DX009 (ip), vehicle: other) was 92 % of control, the T/C [18] was 101 % of control and the T/C [19] was 104 % of control. For the same compound, the T/C (dose: 100.0 mg/kg/injection, schedule: Q01DX009 (ip), vehicle: other) was 93 % of control and the T/C (dose: 200.0 mg/kg/injection, schedule: Q01DX009 (ip), vehicle: other) was 86 % of control.
For `N#Cc1ccc(OC(=O)Nc2c(Cl)cc(Cl)cc2Cl)cc1`, the T/C [20] was 100 % of control and the T/C [21] was 92 % of control.
`CC1(C)CC(N2CCOCC2)=CC(=S)N1` was tested, and the T/C [15] was 100 % of control, the T/C [16] was 103 % of control and the T/C [17] was 98 % of control.
For `CCCCn1c(=O)cc[nH]c1=O`, the T/C (dose: 100.0 mg/kg/injection, schedule: Q04DX003 (ip), vehicle: saline with Tween-80) was 100 % of control, the T/C (dose: 200.0 mg/kg/injection, schedule: Q04DX003 (ip), vehicle: saline with Tween-80) was 100 % of control and the T/C (dose: 400.0 mg/kg/injection, schedule: Q04DX003 (ip), vehicle: saline with Tween-80) was 99 % of control.
For `Cc1c(-c2nc(N)nc(C3CC3)c2C)nc(N)nc1C1CC1`, the T/C (dose: 60.0 mg/kg/injection, schedule: Q01DX005 (ip), vehicle: saline) was 102 % of control and the T/C (dose: 120.0 mg/kg/injection, schedule: Q01DX005 (ip), vehicle: saline) was 100 % of control.
With `CC(N)C1CCC2C3CC=C4CC(N)CCC4(C)C3CCC12C` (stereo not drawn) the T/C (dose: 10.0 mg/kg/injection, schedule: Q01DX009 (ip), vehicle: saline with Tween-80) was 112 % of control and the T/C (dose: 20.0 mg/kg/injection, schedule: Q01DX009 (ip), vehicle: saline with Tween-80) was 94 % of control.
For `C/C=C\c1noc2c1C(=O)OC(C)C2` (stereo not drawn), the T/C [20] was 104 % of control, the T/C [21] was 96 % of control and the T/C [22] was 103 % of control.
`O=P(c1ccccc1)(c1ccccc1)c1ccccc1.O=P(c1ccccc1)(c1ccccc1)c1ccccc1.S=C=[N][Sn]([N]=C=S)([N]=C=S)[c]1ccccc1` was tested, and the T/C (dose: 100.0 mg/kg/injection, schedule: Q04DX003 (ip), vehicle: saline) was 105 % of control, the T/C (dose: 200.0 mg/kg/injection, schedule: Q04DX003 (ip), vehicle: saline) was 108 % of control and the T/C (dose: 400.0 mg/kg/injection, schedule: Q04DX003 (ip), vehicle: saline) was 100 % of control.
In the case of `O=C(SCNS(=O)(=O)c1ccccc1)c1ccccc1`, the T/C [8] is reported as 111 % of control, the T/C [9] is reported as 113 % of control and the T/C [10] is reported as 114 % of control.
With `c1cnc2c(c1)Sc1ncccc1S2` the T/C [4] was 96 % of control and the T/C [5] was 92 % of control.
With `O=C1C=C(O)C2CCCCC2N1` (stereo not drawn) the T/C [15] was 99 % of control and the T/C [16] was 95 % of control.
With `O=C1C=C(Cl)C(O)C1(Cl)Cl` (stereo not drawn) the T/C (dose: 6.25 mg/kg/injection, schedule: Q01DX009 (ip), vehicle: saline) was 94 % of control and the T/C [23] was 92 % of control.
For `COc1ccc2c(c1)C(O)NC(=O)O2` (stereo not drawn), the T/C [15] was 98 % of control, the T/C [16] was 103 % of control and the T/C [17] was 119 % of control.
With `O=C1C(O)=C(c2ccccc2)C(=O)C(O)=C1c1ccccc1` the T/C [23] was 101 % of control and 124 % of control and the T/C [11] was 157 % of control and 164 % of control.
For `N#Cc1ccc(NC(=O)Nc2ccc([N+](=O)[O-])cc2Cl)cc1`, the T/C [20] was 93 % of control, the T/C [21] was 86 % of control and the T/C [22] was 89 % of control and 92 % of control.
With `CCCCCCCCCCCCCCCC(=O)N(CC#CCN(C(=O)CCCCCCCCCCCCCCC)C(C)CCCN(CC)CC)C(C)CCCN(CC)CC` (stereo not drawn) the T/C [18] was 97 % of control and the T/C [19] was 101 % of control.
`Clc1ccccc1OCC1CO1` (stereo not drawn) was tested, and the T/C [5] was 100 % of control, the T/C [6] was 109 % of control and the T/C [7] was 109 % of control.
With `Cn1c(=O)n(-c2ccccc2)c(=O)c2ccccc21` the T/C (dose: 100.0 mg/kg/injection, schedule: Q01DX009 (ip), vehicle: Klucel (hydroxypropylcellulose) (HPC)) was 100 % of control, the T/C (dose: 200.0 mg/kg/injection, schedule: Q01DX009 (ip), vehicle: Klucel (hydroxypropylcellulose) (HPC)) was 110 % of control and the T/C (dose: 400.0 mg/kg/injection, schedule: Q01DX009 (ip), vehicle: Klucel (hydroxypropylcellulose) (HPC)) was 109 % of control.
With `COc1ccc2ccc3oc([N+](=O)[O-])cc3c2c1` the T/C [15] was 108 % of control, the T/C [16] was 119 % of control and the T/C (dose: 400.0 mg/kg/injection, schedule: Q01DX005 (ip), vehicle: Klucel (hydroxypropylcellulose) (HPC)) was 92 % of control.
`C/C(=N\N=C(\N)N1CCOCC1)c1ccc2c(c1)Cc1c(/C(C)=N/N=C(\N)N3CCOCC3)cccc1-2` was tested, and the T/C (dose: 12.5 mg/kg/injection, schedule: Q04DX002 (ip), vehicle: saline with Tween-80) was 102 % of control, the T/C (dose: 25.0 mg/kg/injection, schedule: Q04DX002 (ip), vehicle: saline with Tween-80) was 97 % of control and the T/C (dose: 50.0 mg/kg/injection, schedule: Q04DX002 (ip), vehicle: saline with Tween-80) was 103 % of control.
For `CCN(CC)Cc1c(C)[nH]c2cc(Cl)ccc2c1=O`, the T/C (dose: 100.0 mg/kg/injection, schedule: Q01DX001 (ip), vehicle: saline with Tween-80) was 88 % of control.
For `CCOC(=O)c1csc(/C=C/c2cc(OC)c(OC)c(OC)c2)n1`, the T/C [20] was 105 % of control, the T/C [21] was 100 % of control and the T/C [22] was 92 % of control.
With `CSC(=CC(=O)c1ccccc1)SC` the T/C (dose: 12.5 mg/kg/injection, schedule: Q01DX009 (ip), vehicle: saline with Tween-80) was 104 % of control, the T/C (dose: 25.0 mg/kg/injection, schedule: Q01DX009 (ip), vehicle: saline with Tween-80) was 105 % of control and the T/C [4] was 114 % of control. The T/C [5] was 110 % of control.
With `CC(C)NC(=O)OCc1c(COC(=O)NC(C)C)c2n(c1-c1ccc(Cl)c(Cl)c1)CCS2(=O)=O` the T/C (dose: 25.0 mg/kg/injection, schedule: Q01DX005 (ip), vehicle: saline with Tween-80) was 106 % of control, the T/C [12] was 97 % of control and the T/C [13] was 88 % of control. For the same compound, the T/C [14] was 86 % of control.
